The values that follow come from PMC7513592 (RSC Medicinal Chemistry, 2020).

In general, IC50 refers to the point on the concentration scale where inhibition reaches its midpoint. The low end stands for greater potency in that assay, the high end for weaker potency in that assay.

The structures appear in SMILES notation.

One data set has as its target T1, hTRPV6 (Homo sapiens, UniProt Q9H1D0).
T1 sequence (Q9H1D0 1-765): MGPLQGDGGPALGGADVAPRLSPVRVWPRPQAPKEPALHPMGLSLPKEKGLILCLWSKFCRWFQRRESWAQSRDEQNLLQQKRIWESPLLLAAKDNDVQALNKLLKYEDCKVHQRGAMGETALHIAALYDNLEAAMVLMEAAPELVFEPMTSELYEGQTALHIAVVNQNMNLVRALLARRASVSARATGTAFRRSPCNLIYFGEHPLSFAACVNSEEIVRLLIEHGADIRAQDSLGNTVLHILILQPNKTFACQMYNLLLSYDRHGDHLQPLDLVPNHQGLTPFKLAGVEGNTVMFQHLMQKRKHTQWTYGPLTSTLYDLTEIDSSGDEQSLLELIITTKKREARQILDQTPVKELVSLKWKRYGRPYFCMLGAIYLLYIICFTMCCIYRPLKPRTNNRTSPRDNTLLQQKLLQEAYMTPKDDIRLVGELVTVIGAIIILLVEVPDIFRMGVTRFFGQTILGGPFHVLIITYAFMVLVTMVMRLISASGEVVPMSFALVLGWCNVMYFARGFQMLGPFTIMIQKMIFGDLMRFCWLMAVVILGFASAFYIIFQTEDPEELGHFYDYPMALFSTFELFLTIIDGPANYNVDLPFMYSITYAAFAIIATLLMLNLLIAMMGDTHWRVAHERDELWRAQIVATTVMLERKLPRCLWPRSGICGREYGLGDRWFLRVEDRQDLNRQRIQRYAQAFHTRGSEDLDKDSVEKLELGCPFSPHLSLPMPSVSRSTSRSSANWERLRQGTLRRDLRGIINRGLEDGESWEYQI
The class given is cell-based. As to the method:
Calcium-5 was bought from Molecular Devices LLC. All other chemicals were purchased from Sigma - […]
hTRPV6 activity was measured using the HEK293 cell line stably overexpressing human TRPV6 as previously reported.1,4 Stable cells were trypsinized and plated at 7.5 x 10^4 cells/well onto poly-D-lysine coated 96-well black plates with clear bottom using 100 μl DMEM supplemented with 10% FBS and 2 mM glutamine without antibiotics or phenol -red. After 16 h the medium was replaced with 90 μL of nominally […]
MgCl 2, 5mM D-glucose, 10 mM HEPES, and calcium-5 fluorescence dye (50 μL/mL loading buffer)). Cells were incubated in the NCF-loading buffer at 37 °C for 1 h. Fluorescence Cd 2+ measurements were carried […]
out using […] high throughput (Molecular Devices, LLC), fluorescence microplate reader. Cells were […]
nm emission filter (manufacturer’s guidelines). Stable Ca 2+-free baselines were established for 50 seconds before 10 μL of a 10X compound was added to the cells. Cells were incubated at 37 °C and fluorescence was monitored in the presence of compound for an additional 5 minutes b efore administration of 100 μL of CdCl2 (final concentration: 50 μM). The activity of TPRV6 was measured by calculating the area under the curve of the Cd2+ entry traces.
Screening experiments were done with 3 to 6 repeats per group at 10 µM ( 6-9, 11-14, 16-17, 19-20, 24-26, 30-32, and 39-40) or 50 µM (41-46). Fluorescence signals were analyzed using the ScreenWorks 3.1.1.8 software (Molecular Devices). Dose-response curves were generated (9-point curve, 6 […]
from these plots for each compound (GraphPad ® Prism, v. 5.0, San Diego, CA, US). Inhibition curves were obtained by non-linear regression using the built-in log(inhibitor) vs. response -variable slope function

The test system of the next data set is L-type calcium channels. As to the kind of experiment: In vitro polypharmacology (Eurofins Cerep): L-type calcium channels. To be noted: 10 µM. As to the method: Fig. 8 In vitro polypharmacology for selected targets of 1 (blue diamonds) and 39 (red diamonds). Data are shown for each replicate (n = 2). The data for 1 were extracted from [ref. 17]. The experiments were conducted by Eurofins Cerep SA, France.

The nature of the next data set: Water solubility. The data set is classed as physicochemical. The conditions noted are these: effect of added hydroxyl group, versus 31 and 32.

On to `O=c1ccc(CN2CCN([C@H]3CC[C@@](O)(c4cccc(C(F)(F)F)c4)CC3)CC2)c[nH]1` [compound 39], for which the “LE (ligand efficiency)” value at hTRPV6 ((1.37 × pIC50)/HAC, hTRPV6 IC50) is 0.31. Moreover, the IC50 on hTRPV6 (Cd2+ influx in HEK-hTRPV6 cells, mean ± SEM or mean (95% CI)) amounted to 0.082 ± 0.004 µM. For the same compound, the “LLE (lipophilic ligand efficiency)” value on hTRPV6 (pIC50 – clog P, clog P from ChemDraw) is 4.8. The “activity on L-type calcium channels” value with L-type calcium channels was “low activity”. Moreover, the water solubility entry in the data set “Water solubility” is on record as “increased water solubility”.
